Tests used:
Acinetobacter baumannii [1] = assay: Antibacterial activity against TEM92 ESBL-producing Acinetobacter baumannii by CLSI method; format: functional
Acinetobacter baumannii [2] = assay: Antibacterial activity against Acinetobacter baumannii by CLSI method; format: functional

Row | Molecule | MIC (Acinetobacter baumannii [1]) | MIC (Acinetobacter baumannii [2])
1 | NC[C@H]1O[C@H](O[C@H]2[C@H](O)[C@@H](O[C@H]3O[C@H](CO)[C@@H](O)[C@H](N)[C@H]3O)[C@H](N)C[C@@H]2N)[C@H](N)C[C@@H]1O [TOBRAMYCIN] | > 32 µg/mL | 
2 | CC(C)(O/N=C(\C(=O)N[C@@H]1C(=O)N2C(C(=O)[O-])=C(C[n+]3ccccc3)CS[C@H]12)c1csc(N)n1)C(=O)O [CEFTAZIDIME] | > 128 µg/mL | ≥ 16 µg/mL
3 | NCC[C@H](O)C(=O)N[C@@H]1C[C@H](N)[C@@H](O[C@H]2O[C@H](CN)[C@@H](O)[C@H](O)[C@H]2O)[C@H](O)[C@H]1O[C@H]1O[C@H](CO)[C@@H](O)[C@H](N)[C@H]1O [AMIKACIN] | ≤ 8 µg/mL | 
4 | C[C@@H](O)[C@H]1C(=O)N2C(C(=O)O)=C(SCCNC=N)C[C@H]12 [IMIPENEM ANHYDROUS] | ≤ 1 µg/mL | ≥ 8 µg/mL
5 | C[C@@H](O)[C@H]1C(=O)N2C(C(=O)O)=C(S[C@@H]3CN[C@H](C(=O)N(C)C)C3)[C@H](C)[C@H]12 [MEROPENEM] | ≤ 2 µg/mL | 
6 | CCN1CCN(C(=O)N[C@@H](C(=O)N[C@@H]2C(=O)N3[C@@H]2SC(C)(C)[C@@H]3C(=O)O)c2ccccc2)C(=O)C1=O [PIPERACILLIN] | > 128 µg/mL | 
7 | GENTAMICIN | > 128 µg/mL | 
8 | CO/N=C(\C(=O)N[C@@H]1C(=O)N2C(C(=O)O)=C(COC(C)=O)CS[C@H]12)c1csc(N)n1 [CEFOTAXIME] | > 128 µg/mL | ≥ 16 µg/mL
9 | CO/N=C(\C(=O)N[C@@H]1C(=O)N2C(C(=O)O)=C(CSc3nc(=O)c(O)nn3C)CS[C@H]12)c1csc(N)n1 [CEFTRIAXONE] | > 128 µg/mL | 
10 | C[C@H]1COc2c(N3CCN(C)CC3)c(F)cc3c(=O)c(C(=O)O)cn1c23.C[C@H]1COc2c(N3CCN(C)CC3)c(F)cc3c(=O)c(C(=O)O)cn1c23.O [LEVOFLOXACIN] | > 32 µg/mL | 
